System: H3K27 trimethylation in WSU-DLCL2 cells
Experiment: WSU-DLCL2 Methylation Assay (H3K27me3 ELISA)
Assay type: cell-based
Conditions: Homo sapiens, WSUDLCL2, 96 hours incubation, H3K27me3 normalised to total Histone H3
From the text: WSU-DLCL2 suspension cells were purchased from DSMZ (German Collection of Microorganisms and Cell Cultures, Braunschweig, Germany). RPMI/Glutamax Medium, Penicillin-Streptomycin, Heat Inactivated Fetal Bovine Serum, and D-PBS were purchased from Life Technologies, Grand Island, N.Y., USA. Extraction Buffer and Neutralization Buffer (5×) were purchased from Active Motif, Carlsbad, Calif., USA. Rabbit anti-Histone H3 antibody was purchased from Abcam, Cambridge, Mass., USA. Rabbit anti-H3K27me3 and HRP-conjugated anti-rabbit-IgG were purchased from Cell Signaling Technology, Danvers, Mass., USA. TMB “Super Sensitive” substrate was sourced from BioFX Laboratories, Owings Mills, Md., USA. IgG-free Bovine Serum Albumin was purchased from Jackson ImmunoResearch, West Grove, Pa., USA. PBS with Tween (10×PBST) was purchased from KPL, Gaithersburg, Md., USA. Sulfuric Acid was purchased from Ricca Chemical, Arlington, Tex., USA. Immulon ELISA plates were purchased from Thermo, Rochester, N.Y., USA. V-bottom cell culture plates were purchased from Corning Inc., Corning, N.Y., USA. V-bottom polypropylene plates were purchased from Greiner Bio-One, Monroe, N.C., USA.
WSU-DLCL2 suspension cells were maintained in growth medium (RPMI 1640 supplemented with 10% v/v heat inactivated fetal bovine serum and 100 units/mL penicillin-streptomycin) and cultured at 37° C. under 5% CO2 Under assay conditions, cells were incubated in Assay Medium (RPMI 1640 supplemented with 20% v/v heat inactivated fetal bovine serum and 100 units/mL penicillin-streptomycin) at 37° C. under 5% CO2 on a plate shaker.
WSU-DLCL2 cells were seeded in assay medium at a concentration of 50,000 cells per mL to a 96-well V-bottom cell culture plate with 200 μL per well. Compound (1 μL) from 96 well source plates was added directly to V-bottom cell plate. Plates were incubated on a titer-plate shaker at 37° C., 5% CO2 for 96 hours. After four days of incubation, plates were spun at 241×g for five minutes and medium was aspirated gently from each well of cell plate without disturbing cell pellet. Pellet was resuspended in 200 μL DPBS and plates were spun again at 241×g for five minutes. The supernatant was aspirated and cold (4° C.) Extraction buffer (100 μL) was added per well. Plates were incubated at 4° C. on orbital shaker for two hours. Plates were spun at 3427×g×10 minutes. Supernatant (80 μL per well) was transferred to its respective well in 96 well V-bottom polypropylene plate. Neutralization Buffer 5× (20 μL per well) was added to V-bottom polypropylene plate containing supernatant. V-bottom polypropylene plates containing crude histone preparation (CHP) were incubated on orbital shaker x five minutes. Crude Histone Preparations were added (2 μL per well) to each respective well into duplicate 96 well ELISA plates containing 100 μL Coating Buffer (1×PBS+BSA 0.05% w/v). Plates were sealed and incubated overnight at 4° C. The following day, plates were washed three times with 300 μL per well 1×PBST. Wells were blocked for two hours with 300 μL per well ELISA Diluent ((PBS (1×) BSA (2% w/v) and Tween20 (0.05% v/v)). Plates were washed three times with 1×PBST. For the Histone H3 detection plate, 100 μL per well were added of anti-Histone-H3 antibody (Abcam, ab1791) diluted 1:10,000 in ELISA Diluent. For H3K27 trimethylation detection plate, 100 μL per well were added of anti-H3K27me3 diluted 1:2000 in ELISA diluent. Plates were incubated for 90 minutes at room temperature. Plates were washed three times with 300 μL 1×PBST per well. For Histone H3 detection, 100 μL of HRP-conjugated anti-rabbit IgG antibody diluted to 1:6000 in ELISA diluent was added per well. For H3K27me3 detection, 100 μL of HRP conjugated anti-rabbit IgG antibody diluted to 1:4000 in ELISA diluent was added per well. Plates were incubated at room temperature for 90 minutes. Plates were washed four times with 1×PBST 300 μL per well. TMB substrate 100 μL was added per well. […]

Structure (SMILES) | IC50
CCn1c(C)cc(=O)c(CNC(=O)c2cc(Cl)cc(N(CC)[C@H]3CC[C@H](N(C)C)CC3)c2C)c1C [Compound 87] | > 50 µM
CCN(c1cc(-c2ccc(COC)nc2)cc(C(=O)NCc2c(Cl)[nH]c(C)cc2=O)c1C)[C@H]1CC[C@H](N(C)C)CC1 [Compound 88] | 2.4 µM
CCN(c1cc(Cl)cc(C(=O)NCc2c(C)[nH]c(C)cc2=O)c1C)[C@H]1CC[C@H](N(C)C)CC1 [Compound 1, 5-chloro-N-((2,6-dimethyl-4-oxo-1,4-dihydropyridin-3-yl)methyl)-3-(((trans)-4-(dimethylamino)cyclohexyl)(ethyl)amino)-2-methylbenzamide] | 8.44 µM
CCN(c1cc(-c2cnc(C)cn2)cc(C(=O)NCc2c(Cl)[nH]c(C)cc2=O)c1C)[C@H]1CC[C@H](N(C)C)CC1 [Compound 91] | 3.3 µM
CCN(c1cc(Cl)cc(C(=O)NCc2c(C)n(C)c(C)cc2=O)c1C)[C@H]1CC[C@H](N(C)C)CC1 [Compound 86] | > 50 µM
CCCN(c1cc(-c2ccc(OCCOC)cc2)cc(C(=O)NCc2c(C)[nH]c(C)cc2=O)c1C)[C@H]1CC[C@H](N(C)C)CC1 [Compound 94] | 5.1 µM
CCN(c1cc(-c2cnn(C)c2)cc(C(=O)NCc2c(Cl)[nH]c(C)cc2=O)c1C)[C@H]1CC[C@H](N(C)C)CC1 [Compound 89] | 5.9 µM
CCN(c1cc(-c2ccc(OCCOC)cc2)cc(C(=O)NCc2c(C)[nH]c(C)cc2=O)c1C)[C@H]1CC[C@H](N(C)C)CC1 [Compound 93] | 1.7 µM
CCN(c1cc(-c2ccc(OCCOC)cc2)cc(C(=O)NCc2c(C)[nH]c(C)cc2=O)c1C)[C@H]1CC[C@H](N(C)CCOC)CC1 [Compound 100] | 7.5 µM
CCN(c1cc(-c2ccc(OCCOC)cc2)cc(C(=O)NCc2c(Cl)[nH]c(C)cc2=O)c1C)[C@H]1CC[C@H](N(C)C)CC1 [Compound 92] | 3.9 µM
CCN(c1cc(-c2ccc(C)nc2)cc(C(=O)NCc2c(Cl)[nH]c(C)cc2=O)c1C)[C@H]1CC[C@H](N(C)C)CC1 [Compound 90] | 2.7 µM
